Values belong to the compound of their own block, whether it stands above or below them.
Molecular target: T1, dihydroorotase (Mesocricetus auratus, UniProt P08955)
T1 construct: purified by an established procedure from a mutant hamster cell line which overproduces the target enzyme; endogenous in cells; host or cells: mutant hamster cell line overproducing the enzyme more than 100-fold; enzyme purified from these cells
Assay: Dihydroorotase inhibition assay (conversion of L-[14C]dihydroorotate to N-[14C]carbamyl-L-aspartate)
Format: biochemical, hamster
Procedure: Dihydroorotase has been purified by an established procedure from a mutant hamster cell line which overproduces the target enzyme by more than 100-fold (P.F. Coleman, D.P. Suttle and G.R. Stark (1978) in "Methods in Enzymology" (P.A. Hoffee and M.E. Jones eds.) Vol. 51, pp 121-134, Academic Press, New York; P.F. Coleman D.P. Suttle and G.R. Stark (1977) J. Biol. Chem. 252, 6379-6385). Purified dihydroorotase was stored at -70°C in a solution containing 30% (v/v) dimethyl sulphoxide, 5% (v/v) glycerol, 50 mM KCl, 4 mM L-glutamine, 4 mM L-aspartate, 0.1 mM EDTA and 1 mM dithiothreitol.
Dihydroorotase catalyses the conversion of N-carbamyl-L-aspartate to L-dihydroorotate. To assess the effects of a potential inhibitor of this target enzyme, the rate of conversion of L-dihydroorotate to N-carbamyl-L-aspartate catalysed by dihydroorotase was measured in the presence of a range of concentrations of the inhibitor. For a tight-binding inhibitor like TDHO, extremely low concentrations are sufficient to abolish all dihydroorotase activity. To illustrate the inhibitory potency of TDHO, results of the following experiment are presented. Assay mixtures for dihydroorotase activity contained in a total volume of 25 ul, 50 mM K.Hepes buffer pH 7.4, 5% (v/v) glycerol 12.5 µM L-[¹⁴C]dihydroorotate (specific radioactivity 47.1 Ci/mol), and TDHO concentrations ranging from 0 - 1.50 µM containing a 30-fold molar excess of ZnCl₂. Catalysis was initiated by addition of 39 ng of dihydroorotase. The rate of conversion of L-[¹⁴C]dihydroorotate to N-[¹⁴C]carbamyl-L-aspartate was measured in the presence of different concentrations of TDHO, using established procedures (R.I. Christopherson, T. Matsuura and M.E. Jones (1978) Analytical Biochemistry 100, 184-187). The assay mixture lacking TDHO had the fastest reaction velocity while the lowest velocity measured was in the presence of the highest concentration of TDHO. The results data are plotted as the reciprocal of reaction velocity (l/v) versus the concentration of TDHO from which a value for the dissociation constant (Ki value) for TDHO from the enzyme-TDHO complex can be obtained.
Assay mixtures for dihydroorotase activity contained in a total volume of 25 µl:50 mM K.Hepes buffer pH 7.4, 5% (v/v) glycerol, 12.5 µM L-[¹⁴C]dihydroorotate (specific radioactivity 47.1 Ci/mol), and HDDP concentrations ranging from 0 - 5 µM. Catalysis was initiated by addition of 39 ng of dihydroorotase. The rate of conversion of L-[¹⁴C]dihydroorotate to N-[¹⁴C]carbamyl-L-aspartate was measured in the presence of different concentrations of HDDP, in a similar manner to Test 3.

T1 sequence (P08955 whole entry): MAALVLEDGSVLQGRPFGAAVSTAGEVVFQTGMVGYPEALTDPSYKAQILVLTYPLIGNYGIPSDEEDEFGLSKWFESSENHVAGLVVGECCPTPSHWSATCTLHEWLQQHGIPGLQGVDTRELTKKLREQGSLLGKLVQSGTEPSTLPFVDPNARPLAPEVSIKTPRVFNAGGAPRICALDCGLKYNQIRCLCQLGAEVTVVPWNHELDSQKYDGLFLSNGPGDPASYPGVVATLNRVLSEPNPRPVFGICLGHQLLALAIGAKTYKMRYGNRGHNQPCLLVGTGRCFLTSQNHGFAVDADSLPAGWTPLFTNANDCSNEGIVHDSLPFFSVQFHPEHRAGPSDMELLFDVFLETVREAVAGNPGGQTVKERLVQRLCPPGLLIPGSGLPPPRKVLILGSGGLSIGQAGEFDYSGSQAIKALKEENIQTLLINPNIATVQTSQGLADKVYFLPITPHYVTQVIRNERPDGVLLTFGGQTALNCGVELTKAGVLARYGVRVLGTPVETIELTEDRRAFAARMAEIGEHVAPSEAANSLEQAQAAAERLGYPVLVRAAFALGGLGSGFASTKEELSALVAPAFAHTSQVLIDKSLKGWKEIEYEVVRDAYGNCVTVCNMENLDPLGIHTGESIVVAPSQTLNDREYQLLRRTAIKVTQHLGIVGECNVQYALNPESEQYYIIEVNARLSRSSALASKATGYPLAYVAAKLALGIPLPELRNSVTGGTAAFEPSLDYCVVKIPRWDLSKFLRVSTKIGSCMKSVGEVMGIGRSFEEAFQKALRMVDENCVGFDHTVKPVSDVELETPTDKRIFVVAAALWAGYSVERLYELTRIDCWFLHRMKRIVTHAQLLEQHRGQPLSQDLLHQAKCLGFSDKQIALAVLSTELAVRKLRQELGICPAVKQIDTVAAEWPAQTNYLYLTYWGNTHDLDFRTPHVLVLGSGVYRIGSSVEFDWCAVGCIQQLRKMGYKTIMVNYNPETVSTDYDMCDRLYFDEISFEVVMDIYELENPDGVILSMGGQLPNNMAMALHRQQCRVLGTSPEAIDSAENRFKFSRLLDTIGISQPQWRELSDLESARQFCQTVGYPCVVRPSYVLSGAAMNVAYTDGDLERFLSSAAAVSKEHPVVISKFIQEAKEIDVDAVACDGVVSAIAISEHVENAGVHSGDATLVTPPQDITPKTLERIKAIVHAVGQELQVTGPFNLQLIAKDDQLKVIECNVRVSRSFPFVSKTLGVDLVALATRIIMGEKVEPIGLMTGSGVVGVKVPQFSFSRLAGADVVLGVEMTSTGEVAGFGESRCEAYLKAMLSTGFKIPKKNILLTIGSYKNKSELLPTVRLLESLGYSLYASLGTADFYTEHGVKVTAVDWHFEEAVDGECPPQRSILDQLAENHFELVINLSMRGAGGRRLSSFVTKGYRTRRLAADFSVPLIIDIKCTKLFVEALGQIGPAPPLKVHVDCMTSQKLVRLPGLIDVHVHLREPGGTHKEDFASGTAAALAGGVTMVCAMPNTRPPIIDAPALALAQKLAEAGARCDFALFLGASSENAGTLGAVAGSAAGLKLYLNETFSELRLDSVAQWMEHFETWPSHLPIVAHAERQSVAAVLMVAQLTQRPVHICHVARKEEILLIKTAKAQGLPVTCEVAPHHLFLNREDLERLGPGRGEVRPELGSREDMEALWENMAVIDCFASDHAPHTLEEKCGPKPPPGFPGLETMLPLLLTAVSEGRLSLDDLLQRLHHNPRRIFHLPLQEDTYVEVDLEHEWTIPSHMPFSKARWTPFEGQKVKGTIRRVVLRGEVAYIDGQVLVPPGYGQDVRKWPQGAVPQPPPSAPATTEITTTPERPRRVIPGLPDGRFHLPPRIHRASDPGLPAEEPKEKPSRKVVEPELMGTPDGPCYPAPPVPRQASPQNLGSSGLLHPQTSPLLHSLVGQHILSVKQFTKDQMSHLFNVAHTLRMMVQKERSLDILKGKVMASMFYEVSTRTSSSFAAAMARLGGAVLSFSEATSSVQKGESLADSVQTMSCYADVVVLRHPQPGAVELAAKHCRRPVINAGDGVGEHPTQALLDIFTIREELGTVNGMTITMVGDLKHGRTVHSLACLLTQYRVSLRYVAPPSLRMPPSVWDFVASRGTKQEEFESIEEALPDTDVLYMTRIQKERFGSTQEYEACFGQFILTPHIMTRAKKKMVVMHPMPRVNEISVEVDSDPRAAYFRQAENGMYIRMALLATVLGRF

- Ki (HDDP 0 - 5 µM, pH 7.4, 12.5 µM L-[¹⁴C]dihydroorotate, no ZnCl₂ mentioned): 480 nM
Compound: O=C1NC(C(=O)O)=CC(C(=O)O)N1 (stereo not shown) [HDDP, 2-oxo-1,2,3,6-tetrahydropyrimidine-4,6-dicarboxylic acid]

- Ki (TDHO containing a 30-fold molar excess of ZnCl₂, pH 7.4, 12.5 µM L-[¹⁴C]dihydroorotate): 53 nM
- Ki (free acid of TDHO, in the absence of Zn²⁺): 4500 nM
Compound: O=C1NC(=S)CC(C(=O)O)N1 (stereo not shown) [TDHO, Hexahydro-2-oxo-6-thioxo-4-pyrimidinecarboxylic acid]

- inhibitory effect (ZnCl₂ alone, at the same concentrations as in the TDHO experiment): moderate inhibitory effect
Compound: ZnCl₂ [reference compound]

Reference: patent EP0260057A2, “2-Oxo-4-carboxy-pyrimidines” (THE UNIVERSITY OF MELBOURNE, priority 1986, dated 1988)
